Assay results reported in patent US12281363B2, “Methods for detecting antiviral-drug resistant virus” (Secretary of State for Health and Social Care, priority 2018, dated 2025).
Where two headings read alike, the source gives them in different places.

Test system: HSV-1
Experiment: Plaque reduction assay, HSV-1 clinical isolates on Vero cells
Format: cell-based
Details: Human alphaherpesvirus 1, Vero
Summary of the method: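 Susceptibility of HSV-1 isolates was read as percent plaque reduction versus no-drug control, counted on fixed, crystal-violet-stained sub-confluent Vero cells infected at 75 PFU/well beneath CMC. Intermediate resistance lies between cut-offs ACV <3/>40 μM, PCV <10/>40 μM, CDV <24/>30 μM, FOS <250/>400 μM.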

Nc1nc2c(ncn2COCCO)c(=O)[nH]1 [Aciclovir, acyclovir]
IC50 (read-out: Drug susceptibility Aciclovir (ACV), isolate HPG002, HSV-1 pol E992K (2974G>A), also TK insert (G) nt 430-436, pol A1169T): 3 to 40 µM
IC50 (read-out: Drug susceptibility Aciclovir (ACV), isolate HPG003, HSV-1 TK Y172S (515A>C)): 3 to 40 µM
IC50 (read-out: Drug susceptibility Aciclovir (ACV), isolate HPG005, HSV-1 TK A37V (110C>T)): < 3 µM
IC50 (read-out: Drug susceptibility Aciclovir (ACV), isolate HPG005, HSV-1 TK A192T (574G>A)): < 3 µM
IC50 (read-out: Drug susceptibility Aciclovir (ACV), isolate HPG006, HSV-1 pol G121S (361G>A), also a TK resistance mutation (footnote a)): > 40 µM
IC50 (read-out: Drug susceptibility Aciclovir (ACV), isolate HPG008, HSV-1 TK V204G (611T>G)): 3 to 40 µM
IC50 (read-out: Drug susceptibility Aciclovir (ACV), isolate HPG009, HSV-1 pol E992K (2974G>A), also pol A1169T): < 3 µM
IC50 (read-out: Drug susceptibility Aciclovir (ACV), isolate HPG010, HSV-1 TK Q125* (373C>T)): 3 to 40 µM
IC50 (read-out: Drug susceptibility Aciclovir (ACV), isolate HPG011, HSV-1 TK Q125* (373C>T)): 3 to 40 µM
IC50 (read-out: Drug susceptibility Aciclovir (ACV), isolate HPG012, HSV-1 pol G985E (2954G>A), also TK A93V): > 40 µM
IC50 (read-out: Drug susceptibility Aciclovir (ACV), isolate HPG013, HSV-1 TK M121I (363G>A)): 3 to 40 µM
IC50 (read-out: Drug susceptibility Aciclovir (ACV), isolate HPG013, HSV-1 pol D83A (248A>C), also TK M121I, pol A1169T): 3 to 40 µM
IC50 (read-out: Drug susceptibility Aciclovir (ACV), isolate HPG014, HSV-1 pol A1115T (3343G>A)): < 3 µM
IC50 (read-out: Drug susceptibility Aciclovir (ACV), isolate HPG014, HSV-1 pol R993C (2977C>T)): < 3 µM
IC50 (read-out: Drug susceptibility Aciclovir (ACV), isolate HPG014, HSV-1 pol T54A (160A>G)): < 3 µM
IC50 (read-out: Drug susceptibility Aciclovir (ACV), isolate HPG015, HSV-1 pol 966stop or F965_I966insF (2892_2893insT to 2895_2896insT)): < 3 µM
IC50 (read-out: Drug susceptibility Aciclovir (ACV), isolate HPG016, HSV-1 pol A1169T (3505G>A)): < 3 µM
IC50 (read-out: Drug susceptibility Aciclovir (ACV), isolate HPG018, HSV-1 TK frameshift (881delC to 885delC)): 3 to 40 µM
IC50 (read-out: Drug susceptibility Aciclovir (ACV), isolate HPG018, HSV-1 pol P1199T (3595C>A), also TK deletion (C) nt 881-885, pol A1169T): 3 to 40 µM
IC50 (read-out: Drug susceptibility Aciclovir (ACV), isolate HPG019, HSV-1 pol K750T (2249A>C), also TK deletion (G) nt 430-436, pol A1169T): > 40 µM
IC50 (read-out: Drug susceptibility Aciclovir (ACV), isolate HPG020, HSV-1 pol S911N (2732G>A), also pol A1169T): < 3 µM
IC50 (read-out: Drug susceptibility Aciclovir (ACV), isolate HPG021, HSV-1 pol R681Q (2042G>A), also TK deletion (G) nt 430-436): > 40 µM
IC50 (read-out: Drug susceptibility Aciclovir (ACV), isolate HPG021, HSV-1 pol T839A (2515A>G), also TK deletion (G) nt 430-436): > 40 µM
IC50 (read-out: Drug susceptibility Aciclovir (ACV), isolate HPG025, HSV-1 pol E850Q (2548G>C), also TK R216C): 3 to 40 µM
IC50 (read-out: Drug susceptibility Aciclovir (ACV), isolate HPG026, HSV-1 pol E850Q (2548G>C), also TK R216C, pol A1169T): 3 to 40 µM
IC50 (read-out: Drug susceptibility Aciclovir (ACV), isolate HPG027, HSV-1 TK V204G (611T>G), also pol S914L, A1169AT): > 40 µM
IC50 (read-out: Drug susceptibility Aciclovir (ACV), isolate HPG027, HSV-1 pol S914L (2741C>T), also TK V204G, pol A1169T): > 40 µM
IC50 (read-out: Drug susceptibility Aciclovir (ACV), isolate HPG029, HSV-1 TK Y172S (515A>C)): > 40 µM
IC50 (read-out: Drug susceptibility Aciclovir (ACV), isolate HPG031, HSV-1 pol E1120A (3359A>C), also a TK resistance mutation (footnote e)): 3 to 40 µM
IC50 (read-out: Drug susceptibility Aciclovir (ACV), isolate HPG031, HSV-1 pol G139R (415G>C or 415G>A), also a TK resistance mutation (footnote e)): 3 to 40 µM
IC50 (read-out: Drug susceptibility Aciclovir (ACV), isolate HPG032, HSV-1 TK 183* (437_438insA)): 3 to 40 µM
IC50 (read-out: Drug susceptibility Aciclovir (ACV), isolate HPG033, HSV-1 TK I358L (1072A>C), also TK T287M): 3 to 40 µM
IC50 (read-out: Drug susceptibility Aciclovir (ACV), isolate HPG033, HSV-1 pol N1046T (3137A>C), also TK T287M, pol A1169T): 3 to 40 µM
IC50 (read-out: Drug susceptibility Aciclovir (ACV), isolate HPG035, HSV-1 pol S239L (716C>T), also pol S724N): 3 to 40 µM
IC50 (read-out: Drug susceptibility Aciclovir (ACV), isolate HPG037, HSV-1 TK L69M (205>A), also TK Y239H): 3 to 40 µM
IC50 (read-out: Drug susceptibility Aciclovir (ACV), isolate HPG037, HSV-1 TK R256W (766C>T)): 3 to 40 µM
IC50 (read-out: Drug susceptibility Aciclovir (ACV), isolate HPG037, HSV-1 TK Y239H (715T>C)): 3 to 40 µM
IC50 (read-out: Drug susceptibility Aciclovir (ACV), isolate HPG039, HSV-1 TK 85* or H58fs (169delC, 170delC, 171delC, or 172delC)): 3 to 40 µM
IC50 (read-out: Drug susceptibility Aciclovir (ACV), isolate HPG040, HSV-1 pol S911N (2732G>A), also TK deletion (C) nt 896-900, pol A1169T): > 40 µM
IC50 (read-out: Drug susceptibility Aciclovir (ACV), isolate HPG041, HSV-1 pol S911N (2732G>A), also pol A1169T): < 3 µM
IC50 (read-out: Drug susceptibility Aciclovir (ACV), isolate HPG042, HSV-1 TK frameshift (881delC to 885delC)): 3 to 40 µM
IC50 (read-out: Drug susceptibility Aciclovir (ACV), isolate HPG042, HSV-1 pol A972V (2915C>T), also TK deletion (C) nt 881-885, pol A1169T): > 40 µM
IC50 (read-out: Drug susceptibility Aciclovir (ACV), isolate HPG042, HSV-1 pol G22R (64G>A), also TK deletion (C) nt 881-885, pol A1169T): > 40 µM
IC50 (read-out: Drug susceptibility Aciclovir (ACV), isolate HPG043, HSV-1 TK 183* (437_438insA)): 3 to 40 µM
IC50 (read-out: Drug susceptibility Aciclovir (ACV), isolate HPG045, HSV-1 TK L49R (146T>G)): 3 to 40 µM
IC50 (read-out: Drug susceptibility Aciclovir (ACV), isolate HPG045, HSV-1 pol L419I (1255C>A), also TK L49R, pol A1169T): 3 to 40 µM
IC50 (read-out: Drug susceptibility Aciclovir (ACV), isolate HPG046, HSV-1 TK I166N (497T>A)): 3 to 40 µM
IC50 (read-out: Drug susceptibility Aciclovir (ACV), isolate HPG047, HSV-1 pol E680 (2039A>C), also TK deletion (C) nt 548-553, pol A1169T): 3 to 40 µM
IC50 (read-out: Drug susceptibility Aciclovir (ACV), isolate HPG050, HSV-1 TK Q34* (100C>T)): > 40 µM
IC50 (read-out: Drug susceptibility Aciclovir (ACV), isolate HPG051, HSV-1 pol D83A (248A>C), also TK R176stop): 3 to 40 µM
IC50 (read-out: Drug susceptibility Aciclovir (ACV), isolate HPG052, HSV-1 TK Q34* (100C>T)): 3 to 40 µM
IC50 (read-out: Drug susceptibility Aciclovir (ACV), isolate HPG053, HSV-1 pol L802R + A834S (2405T>G, 2500G>T), also TK R176W): > 40 µM
IC50 (read-out: Drug susceptibility Aciclovir (ACV), isolate HPG053, HSV-1 pol S911N (2732G>A), also TK R176W, pol A1169T): > 40 µM
IC50 (read-out: Drug susceptibility Aciclovir (ACV), isolate HPG054, HSV-1 pol E992K (2974G>A), also TK insert (G) nt 430-436, pol A1169T): 3 to 40 µM
IC50 (read-out: Drug susceptibility Aciclovir (ACV), isolate HPG055, HSV-1 TK V204G (611T>G), also pol A1169AT): 3 to 40 µM
